Results from patent US7473541B2, “Identification, cloning, expression, and purification of three novel human calcium-independent phospholipase A2 family members possessing triacylglycerol lipase and acylglycerol transacylase activities” (priority 2004, dated 2009).
pIC50: −log10 of the molar value.

Legend:
iPLA2gamma = target: T1, iPLA2gamma (Homo sapiens, UniProt Q9NP80); settings: previously demonstrated (refs 37-39); cited from earlier work
T1 sequence (Q9NP80 1-782): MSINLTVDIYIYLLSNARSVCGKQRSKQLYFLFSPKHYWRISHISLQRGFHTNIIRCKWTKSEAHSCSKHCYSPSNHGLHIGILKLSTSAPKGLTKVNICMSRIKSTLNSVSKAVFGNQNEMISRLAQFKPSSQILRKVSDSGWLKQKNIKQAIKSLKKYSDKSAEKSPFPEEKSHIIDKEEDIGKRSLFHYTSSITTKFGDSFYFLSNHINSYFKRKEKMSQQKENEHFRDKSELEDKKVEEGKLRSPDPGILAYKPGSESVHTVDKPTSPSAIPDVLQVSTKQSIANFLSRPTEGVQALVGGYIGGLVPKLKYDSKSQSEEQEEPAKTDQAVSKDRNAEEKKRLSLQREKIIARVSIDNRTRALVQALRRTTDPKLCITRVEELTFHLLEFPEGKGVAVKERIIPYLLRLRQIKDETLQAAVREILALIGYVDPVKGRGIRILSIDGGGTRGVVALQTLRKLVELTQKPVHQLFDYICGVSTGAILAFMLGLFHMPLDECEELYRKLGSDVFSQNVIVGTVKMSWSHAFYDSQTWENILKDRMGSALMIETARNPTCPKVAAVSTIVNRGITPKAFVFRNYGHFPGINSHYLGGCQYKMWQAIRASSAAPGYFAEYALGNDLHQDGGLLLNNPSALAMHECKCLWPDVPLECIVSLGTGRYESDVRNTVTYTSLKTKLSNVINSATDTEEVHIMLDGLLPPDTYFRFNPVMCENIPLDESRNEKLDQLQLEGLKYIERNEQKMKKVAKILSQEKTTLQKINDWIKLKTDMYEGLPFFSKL

[1] = target: iPLA2epsilon, iPLA2zeta, and iPLA2eta; experiment: Triglyceride lipase activity inhibition, summary over the three isoforms; format: biochemical, human; settings: range over iPLA2epsilon, zeta, eta; read-out: IC50, triglyceride lipase activity of each of the three isoforms
Method: (§1) Assay for Triolein Lipase Activity—Sample fractions were incubated in 85 mM potassium phosphate, pH 7.0 containing 2 mM EDTA and 2 mM DTT for 15 min at 37° C. in the presence of a suspension of 100 microM [9,10-^3H(N)]-triolein (100 microCi/micromol) in 25 microM egg yolk lecithin, and 100 microM sodium taurocholate. In some reactions, BEL was added at the indicated concentrations and incubated with enzyme at room temperature for 3 min prior to the addition of radiolabeled substrate. After extraction of radiolabeled reaction products and remaining substrate into butanol, samples were spotted on TLC plates, overlaid with oleic acid standard, dried, and developed in chloroformlmethanol/NH4OH (65:25:5). The region of the plate corresponding to the oleic acid standard (visualized by iodine staining) was scraped into scintillation vials and quantified by liquid scintillation spectrometry.

iPLA2beta = target: T2, iPLA2beta (Homo sapiens, UniProt O60733); settings: previously demonstrated (refs 37-39); cited from earlier work
T2 sequence (O60733 1-806): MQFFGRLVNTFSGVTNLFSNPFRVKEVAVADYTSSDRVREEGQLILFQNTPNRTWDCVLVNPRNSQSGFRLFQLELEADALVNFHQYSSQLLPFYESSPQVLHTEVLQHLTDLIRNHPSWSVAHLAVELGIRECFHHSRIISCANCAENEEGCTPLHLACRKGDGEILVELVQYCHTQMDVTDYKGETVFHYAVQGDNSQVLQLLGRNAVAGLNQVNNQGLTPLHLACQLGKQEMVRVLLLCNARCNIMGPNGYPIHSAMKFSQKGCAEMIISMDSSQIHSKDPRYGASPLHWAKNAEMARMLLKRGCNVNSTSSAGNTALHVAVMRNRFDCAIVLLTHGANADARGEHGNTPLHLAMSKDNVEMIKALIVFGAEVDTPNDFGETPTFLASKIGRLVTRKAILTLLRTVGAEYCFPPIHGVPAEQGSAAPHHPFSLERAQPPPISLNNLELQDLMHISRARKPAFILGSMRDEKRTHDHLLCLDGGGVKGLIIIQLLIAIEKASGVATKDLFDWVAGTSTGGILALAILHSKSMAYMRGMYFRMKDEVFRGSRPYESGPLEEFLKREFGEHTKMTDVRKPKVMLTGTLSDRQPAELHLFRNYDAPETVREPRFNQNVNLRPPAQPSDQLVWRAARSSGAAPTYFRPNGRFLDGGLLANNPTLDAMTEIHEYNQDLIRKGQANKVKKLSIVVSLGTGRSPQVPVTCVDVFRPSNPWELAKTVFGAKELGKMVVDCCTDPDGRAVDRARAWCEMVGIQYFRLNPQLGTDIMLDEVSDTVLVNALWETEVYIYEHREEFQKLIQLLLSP

iPLA2zeta = target: T3, iPLA2zeta (Homo sapiens, UniProt Q96AD5, L481P); experiment: Triolein lipase activity inhibition by BEL; format: biochemical; settings: pre-incubated with 0.1-2 microM BEL prior to substrate
T3 construct: Full-length human iPLA2zeta (TTS-2.2) and iPLA2eta (GS2) were amplified by PCR; made in house; host or cells: Sf9 insect cells (baculovirus)
T3 sequence (Q96AD5 with tags, fused parts or gaps L481P): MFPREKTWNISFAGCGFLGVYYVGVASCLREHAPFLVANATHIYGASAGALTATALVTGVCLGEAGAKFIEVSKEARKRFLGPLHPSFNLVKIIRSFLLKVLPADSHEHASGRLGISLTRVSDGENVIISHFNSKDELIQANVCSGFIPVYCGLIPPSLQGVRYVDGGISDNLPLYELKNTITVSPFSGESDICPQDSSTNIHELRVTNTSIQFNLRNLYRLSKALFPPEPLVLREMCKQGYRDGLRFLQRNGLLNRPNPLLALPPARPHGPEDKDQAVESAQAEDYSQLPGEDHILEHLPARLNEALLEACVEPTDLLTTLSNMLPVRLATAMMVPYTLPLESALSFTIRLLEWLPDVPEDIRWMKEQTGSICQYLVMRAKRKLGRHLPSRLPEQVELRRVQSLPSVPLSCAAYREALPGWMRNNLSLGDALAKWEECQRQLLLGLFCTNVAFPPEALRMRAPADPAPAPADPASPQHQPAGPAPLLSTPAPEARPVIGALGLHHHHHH
Method: as §1
(§2) To determine whether the three new iPLA2 family members were inhibitable by BEL, each enzyme was pre-incubated with 0.1-2 microM BEL or ethanol vehicle alone prior to measuring triolein lipase activity (FIG. 5). […] Considering the hydrophobic nature of the acyl-glycerol substrates of iPLA2epsilon, iPLA2zeta, and iPLA2eta identified herein, it is not surprising that BEL would have access to the active sites of these enzymes.

iPLA2eta = target: T4, iPLA2eta (Homo sapiens, UniProt P41247); experiment: Triolein lipase activity inhibition by BEL; format: biochemical; settings: pre-incubated with 0.1-2 microM BEL prior to substrate
T4 construct: Full-length human iPLA2zeta (TTS-2.2) and iPLA2eta (GS2) were amplified by PCR; made in house; host or cells: Sf9 insect cells (baculovirus)
T4 sequence (P41247 1-253): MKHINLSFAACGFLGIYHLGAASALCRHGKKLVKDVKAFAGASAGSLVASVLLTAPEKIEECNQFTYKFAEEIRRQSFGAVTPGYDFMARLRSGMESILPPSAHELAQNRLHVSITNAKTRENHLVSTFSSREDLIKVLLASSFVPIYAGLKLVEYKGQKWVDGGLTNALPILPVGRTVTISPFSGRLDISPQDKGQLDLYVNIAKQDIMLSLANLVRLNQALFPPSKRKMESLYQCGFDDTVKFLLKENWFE
Method: as §1, §2

iPLA2epsilon = target: T5, iPLA2epsilon (Homo sapiens, UniProt Q9NST1, K434E); experiment: Triolein lipase activity inhibition by BEL; format: biochemical; settings: pre-incubated with 0.1-2 microM BEL prior to substrate
T5 construct: used as a template for PCR to obtain full-length CDNA for iPLA2epsilon; made in house; host or cells: Sf9 insect cells (baculovirus)
T5 sequence (Q9NST1 with tags, fused parts or gaps K434E): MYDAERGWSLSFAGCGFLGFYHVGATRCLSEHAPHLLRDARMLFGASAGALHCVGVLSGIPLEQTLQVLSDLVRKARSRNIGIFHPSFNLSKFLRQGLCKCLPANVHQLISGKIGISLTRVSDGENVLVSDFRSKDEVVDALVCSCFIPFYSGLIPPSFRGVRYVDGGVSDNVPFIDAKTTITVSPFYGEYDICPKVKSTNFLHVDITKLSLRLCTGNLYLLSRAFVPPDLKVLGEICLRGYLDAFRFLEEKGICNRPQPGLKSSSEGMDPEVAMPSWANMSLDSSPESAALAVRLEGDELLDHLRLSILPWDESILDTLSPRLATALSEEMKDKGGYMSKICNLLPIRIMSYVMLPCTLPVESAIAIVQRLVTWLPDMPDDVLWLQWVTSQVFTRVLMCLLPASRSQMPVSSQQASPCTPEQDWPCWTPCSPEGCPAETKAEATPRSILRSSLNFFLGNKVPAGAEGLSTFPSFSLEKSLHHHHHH
Method: as §1, §2

Which results are given for `O=C1O/C(=C/Br)CCC1c1cccc2ccccc12` (stereo not drawn) [BEL, (E)-6-(bromomethylene)-3-(1-naphthalenyl)-2H-tetrahydropyran-2-one]?
inhibition of iPLA2gamma activity (iPLA2gamma): sub to low micromolar concentrations; pIC50 [1]: 6.30 to 7.00; inhibition of iPLA2beta activity (iPLA2beta): sub to low micromolar concentrations; pIC50 (iPLA2zeta): ~6.30; pIC50 (iPLA2eta): ~7.00; pIC50 (iPLA2epsilon): ~7.00
